SMILES strings stand for the structures.

The data set is described as follows: TGA of PFD weight loss from coated aerogel, uncoated aerogel and pure PFD. The class given is physicochemical. To be noted: held at 37° C. for 60 minutes, aerogel-free basis.

As to `FC1(F)C(F)(F)C(F)(F)C2(F)C(F)(F)C(F)(F)C(F)(F)C(F)(F)C2(F)C1(F)F` (stereo not shown) [pure PFD, perfluorodecalin], the “loss of available PFD” value was found to be 100%.

Values taken from US20160228380A1, “IMPREGNANATION OF OXYGEN CARRIER COMPOUNDS INTO CARRIER MATERIALS PROVIDING COMPOSITIONS AND METHODS FOR THE TREATMENT OF WOUNDS AND BURNS” (VIRGINIA COMMONWEALTH UNIVERSITY, priority 2013, published 2016).
